Laboratory results taken from the SangsterLogP compilation.
Values belong to the compound of their own block, whether it stands above or below them.

Key:
[1] = method code SF-AS, from DOI: 10.1016/j.bioorg.2006.09.003, PMID: 17078995; conditions: pH 7.4
[2] = method code SF, from DOI: 10.1002/1522-2675(20001004)83:10<2836::aid-hlca2836>3.0.co;2-g
[3] = method code SF, from DOI: 10.1016/j.bmcl.2006.04.097, PMID: 16714112
[4] = method code SF-AS, from DOI: 10.1002/jhet.5570150704
[5] = method code SF-AS, from DOI: 10.1021/jm00075a005, PMID: 8246220; conditions: pH 7.4
[6] = method code SF-AS, from DOI: 10.1016/s0021-9673(01)91572-9, PMID: 2376602; conditions: pH 7.0
[7] = method code SF-HPLC, from DOI: 10.1016/0378-5173(87)90096-2; conditions: pH 8.0
[8] = method code SF, from DOI: 10.1021/bk-1995-0606.ch004
[9] = method code SF-HPLC, from DOI: 10.1023/a:1015862319927, PMID: 2062808; conditions: pH 7.4
[10] = method code SF-CR+DM, from DOI: 10.1021/ja01573a017; conditions: pH 6.5
[11] = method code SF-AS, from DOI: 10.1021/jm00297a026, PMID: 5441130
[12] = method code SF-AS, from Korenman, Y.; Danilov, N. (1990). Extraction of alkyl salicylates from aqueous media. Journal of Applied Chemistry of the USSR, 63(1)125-129.
[13] = method code SF, from DOI: 10.1080/09553008714551831, PMID: 3497891; conditions: pH 7.4
[14] = method code SF-AS, from DOI: 10.1016/0006-2952(80)90068-4, PMID: 6775639
[15] = method code SF-AS, from DOI: 10.1016/0005-2728(86)90252-5, PMID: 3015209; conditions: pH 7.2
[16] = not given; remark: listed apart in the source
[17] = not given; remark: listed apart in the source
[18] = method code SF-RC, from Audran, M.; Chanal, J.; Berge, G.; Marignan, R. (1983). Binding-structure correlation of bovine serum albumin in a series of cresotinamides. International Journal of Pharmaceutics, 15(3)273-284.; conditions: pH 1.0
[19] = method code SF, from DOI: 10.1021/bk-1995-0606.ch005
[20] = method code SF-C, from DOI: 10.1038/194178b0
[21] = not given; remark: listed apart in the source
[22] = method code SF-HPLC, from PMID: 3799213; conditions: pH 4.0
[23] = method code SF-AS, from DOI: 10.1016/0378-5173(90)90042-3
[24] = method code SF, from DOI: 10.1016/s0378-5173(98)00231-2
[25] = method code SF-C, from DOI: 10.1021/ja00901a033
[26] = method code SF-HPLC, from Peips, M.; Sikk, P.; Aaviksaar, A. (1986). Hydrophobic interaction in the active sites of serine proteases from thermoactinomycetes. Org. React., 23(3)261-271.; conditions: pH 2.2
[27] = method code SF, from DOI: 10.1016/0048-3575(88)90017-x
[28] = method code SF-GLC, from DOI: 10.1016/j.chemosphere.2004.08.061, PMID: 15519382
[29] = from Dutta, H.; Mehta, N.; SenGupta, M.; Pal, D.; Sengupta, C.; De, A. (1988). Dioxanide furoate: studies on its interaction with blood phospholipid in relation to partition coefficients of related drugs. …

logP: 2.15
SMILES: CNc1ccc(C)cc1

logD [1]: 2.33
SMILES: CCC(=O)OCCc1ccc(O)c(OC)c1

SMILES: Nc1ccccc1-c1ccccc1
logD ([2]; pH 5.5): 2.64

logP [3]: 2.21
SMILES: Cc1cccc(C)c1C1=NCCO1

logD ([2]; pH 12.5): 1.58
SMILES: Cc1ccc(CN)cc1

logP [4]: 0.46
SMILES: Cc1nnc(-c2ccccn2)o1

logP: 2.16
SMILES: CCNc1ccccc1

logD [5]: 2.3
SMILES: O=C1CC2(CCCC2)C(=O)N1OCc1ccccc1

logD [6]: -1.05
SMILES: Nc1nc(=O)n([C@H]2CC[C@@H](CO)O2)cc1F

logD [7]: 0.07
SMILES: NC(=O)CCCc1cccnc1

SMILES: CCOP(=O)(Oc1ccc(C#N)cc1)c1ccccc1 (stereo not drawn)
logP [8]: 2.44

logD [9]: 0.68
SMILES: CCC(=O)OCC1OC(n2cc(I)c(=O)[nH]c2=O)CC1O (stereo not drawn)

logD [10]: 4.1
SMILES: Oc1ccc(Cl)c2ccccc12

logP [4]: 2.09
SMILES: Cc1nonc1-c1ccccn1

logP [11]: 1.79
SMILES: CCCCCn1cnc2c(N)ncnc21

logP [12]: 3.8
SMILES: CCCOC(=O)c1ccccc1O

logP [11]: 1.16
SMILES: CCCCC(CO)n1cnc2c(N)ncnc21 (stereo not drawn)

logD [13]: -0.28
SMILES: CC(OCC=CCO)N1C=CNC1[N+](=O)[O-] (stereo not drawn)

logP [14]: 1.47
SMILES: CC1=CC(=O)C(C)=C(C)C1=O

logD [15]: 1.85
SMILES: Cc1cc([N+](=O)[O-])ccc1NN=C(C#N)C#N

SMILES: CC(=O)C=Cc1ccccc1
logP [16]: 2.13

logP [11]: 0.14
SMILES: CCC(O)Cn1cnc2c(N)ncnc21 (stereo not drawn)

logP [17]: 2.26
SMILES: Cc1ncn(-c2ccc(Cl)cc2)c(=O)c1C(=O)O

logD [18]: 3.8
SMILES: Cc1cc(Br)cc(C(=O)NC2CC2)c1O

SMILES: COP(=S)(OC)Oc1ccc([N+](=O)[O-])cc1
logP [19]: 2.86

logP [20]: 2.3
SMILES: CCc1cccc(OCC(=O)O)c1

logD [9]: 1.4
SMILES: O=C(OC[C@H]1O[C@@H](n2cc(I)c(=O)[nH]c2=O)C[C@@H]1O)c1ccccc1

logP [21]: 1.96
SMILES: CNCc1ccc(C)cc1

logD [22]: 0.15
SMILES: CCOC(=O)OCn1c(=O)[nH]cc(F)c1=O

SMILES: O=C(O)COc1ccc(Cl)cc1
logP [20]: 2.23

logD [7]: 0.06
SMILES: NC(=O)CCCc1ccncc1

SMILES: COP(=O)(OC)Oc1c(Cl)cc(C)cc1Cl
logP [8]: 2.66

logP [23]: 1.1
SMILES: CCCOC(=O)c1cc(=O)[nH]c(=O)[nH]1

logP: 2.29
SMILES: c1ccc2c(c1)CCCN2

logP [24]: 1.83
SMILES: OCCCc1ccccc1

logP [25]: 2.69
SMILES: O=C(O)COc1ccc(I)cc1

logP [21]: 2.96
SMILES: CCCNCc1ccc(C)cc1

SMILES: COC(=O)[C@H](Cc1ccccc1)NC(C)=O
logD [26]: 0.92

logP [20]: 2.4
SMILES: O=C(O)COc1cccc(Br)c1

logP [3]: 2.3
SMILES: Ic1ccccc1C1=NCCO1

logD [13]: -0.43
SMILES: COC(=O)C(=Cc1cnc(S(C)=O)n1C)C(=O)OC (stereo not drawn)

SMILES: OCCc1ccc(O)c(O)c1
logD [1]: 0.09

SMILES: CC1=C(C)C(=O)C(C)=C(C)C1=O
logP [14]: 2.12

logD [6]: -1.3
SMILES: Nc1ncnc2c1ncn2C1C=C(CO)C(O)C1O (stereo not drawn)

logD [18]: 4.21
SMILES: CCCCNC(=O)c1cc(Br)cc(C)c1O

SMILES: CNCCc1ccccc1
logD ([2]; pH 12.5): 1.68

SMILES: CCCCCC(NC(C)=O)C(=O)OC (stereo not drawn)
logD [26]: 1.28

logP [12]: 2.08
SMILES: COC(=O)c1ccccc1O

logP [3]: 2.15
SMILES: FC(F)(F)c1ccccc1C1=NCCO1

logP [27]: 0.65
SMILES: CC(=O)OCN1C(=O)C(C)=C(C)C1=O

logD [15]: 2.01
SMILES: N#CC(C#N)=NNc1c(Cl)cccc1Cl

logP [27]: 1.15
SMILES: CC(=O)OCN1C(=O)c2ccccc2C1=O

logD ([19]; pH 5.0): 2.4
SMILES: COC(=O)c1ccccc1CS(=O)(=O)Nc1nc(OC)cc(OC)n1

logP [28]: 6.5
SMILES: Cn1c(Cl)c(Cl)c(Br)c1-c1c(Br)c(Br)c(Cl)n1C

logP [29]: 1.9
SMILES: CC(=O)Oc1ccc(NC(=O)C(Cl)Cl)cc1

logD [10]: 2.84
SMILES: Cc1ccc(NC(=O)c2ccco2)c(O)c1

logP [23]: 0.81
SMILES: CC(C)OC(=O)c1cc(=O)[nH]c(=O)[nH]1

logD [10]: 3.08
SMILES: Cc1ccc(NC(=O)c2ccccc2)c(O)c1

logP [19]: 1.76
SMILES: COC(=O)Nc1ccccc1

logD [13]: 0.49
SMILES: COC(=O)C(=Cc1cnc(S(C)(=O)=O)n1C)C(=O)OC

logP [25]: 1.95
SMILES: Cc1ccc(OCC(=O)O)cc1

logP [17]: 0.83
SMILES: O=C(O)CONC(=O)c1c(Cl)cccc1Cl

logD [6]: -2.3
SMILES: Nc1ccn([C@@H]2C=C(CO)[C@@H](O)[C@H]2O)c(=O)n1

logD [5]: 2.53
SMILES: O=C1CC2(CCCC2)C(=O)N1OCc1ccc(Cl)cc1

logD [9]: -0.95
SMILES: O=c1[nH]c(=O)n([C@H]2C[C@H](O)[C@@H](CO)O2)cc1I

SMILES: COP(=O)(OC)Oc1ccc(C#N)cc1
logP [8]: 0.84

logP [23]: 1.33
SMILES: CCCCOC(=O)c1cc(=O)[nH]c(=O)[nH]1

logP [27]: 0.99
SMILES: CC(=O)OCN1Cc2ccccc2C1=O

logP [24]: 2.89
SMILES: OCCCCCc1ccccc1

logP [28]: 6.7
SMILES: Cn1c(Br)c(Br)c(Br)c1-c1c(Br)c(Br)c(Br)n1C

logP [14]: -2
SMILES: O=C1C(c2[nH]c3ccc(S(=O)(=O)O)cc3c2O)=Nc2ccc(S(=O)(=O)O)cc21

logD [18]: 3.51
SMILES: CNC(=O)c1cc(Br)cc(C)c1O

logP [24]: 3.29
SMILES: OCCCCCCc1ccccc1

logD [1]: 1.5
SMILES: COc1cc(CCOC(C)=O)ccc1O

logP [4]: 0.89
SMILES: Cc1noc(-c2ccccn2)n1

logP [17]: 2.08
SMILES: O=C(O)C(=O)Nc1ccc(Cl)cc1

logP [25]: 1.11
SMILES: N#Cc1ccc(OCC(=O)O)cc1

logD [15]: 2.6
SMILES: Cc1ccc(C)c(NN=C(C#N)C#N)c1

SMILES: CCCCC(NC(C)=O)C(=O)OC (racemic)
logD [26]: 0.79

logD [5]: 1.15
SMILES: CON1C(=O)CC2(CCCC2)C1=O

logP [12]: 4.63
SMILES: CCCCOC(=O)c1ccccc1O

logP [21]: 4.26
SMILES: CCCCCNCc1ccc(C)cc1

logD [7]: 0.4
SMILES: NC(=O)CCCCc1ccccn1

logD [22]: -0.04
SMILES: CCOC(=O)OCn1cc(F)c(=O)[nH]c1=O

logP [29]: 1.56
SMILES: CC(=O)Oc1ccc(N(C)C(=O)C(Cl)Cl)cc1

logP [29]: 1.78
SMILES: CN(C(=O)C(Cl)Cl)c1ccc(O)cc1

logD [22]: 1.11
SMILES: O=C(OCn1c(=O)[nH]cc(F)c1=O)Oc1ccccc1

logP [28]: 6.6
SMILES: Cn1c(Cl)c(Br)c(Br)c1-c1c(Br)c(Br)c(Br)n1C
